Tests used:
[1] = tested on: diabetes in TIP2 mice; conditions: combination therapy: TIP2 mice expressing proinsulin plus 10 mg/kg twice daily oral from 12 to 14 weeks of age (cohort 3); p<0.005
Protocol: Mice were monitored for 30 weeks (210 days). […] Diabetes incidence curves compared using Log-Rank (Mantel-Cox) test.
Removal of doxycycline allowed the maximal recovery of proinsulin expression by 12 weeks (84 days) of age.
Mice receiving JAK inhibitor were treated with 10 mg/kg dose twice daily by oral gavage from 12 to 14 weeks (day 84-98) of age. Control mice received the same volume of vehicle by oral gavage.
Female mice were monitored for diabetes weekly by measurement of urinary glucose levels using Diastix (Bayer). Those suspected of hyperglycaemia had further blood glucose level testing on two consecutive days using ACCU-CHEK Advantage II strips (Roche). Mice with two consecutive blood glucose measurements of greater than or equal to 15 mM were considered diabetic.
TIP2 mice were administered doxycycline until 8 weeks of age to suppress proinsulin expression. At 12 weeks of age TIP2 mice received JAK inhibitor (combination therapy; cohort 3; FIG. 4A) or vehicle (proinsulin monotherapy; cohort 2).

[2] = tested on: IGRP-specific CD8+ T cells
Protocol: IGRP was expressed in TII mice at 10-weeks of age. NOD mice were used as controls without antigen expression. At 13-weeks of age, mice were treated for 2 weeks with vehicle (Veh) or JAK inhibitor (JAKi). Mice were harvested for analysis immediately after treatment (2 week), or after a further 2 or 4 weeks with antigen alone (4 week and 6 week). The number of IGRP-specific CD8+ T cells in the peripheral lymphoid organs (PLO, top panel) or islets (bottom panel) is shown for each time point.
TII mice received doxycycline until 10-weeks of age. After doxycycline was removed, IGRP was expressed in antigen presenting cells of mice carrying both tetO-IGRP and IEα-tTA transgenes. Mice were treated with 10 mg/kg JAK inhibitor or vehicle between 13-15 w of age for 2 weeks. Mice were analysed at 2 weeks (harvest immediately after stopping JAK inhibitor), 4 weeks (harvest two weeks after stopping JAK inhibitor), and 6 weeks (harvest four weeks after stopping JAK inhibitor). Data is from 1-3 experiments per time point with 3-4 mice per group/experiment.
Cells were washed then stained with anti-PE MicroBeads (Miltenyi Biotec) and magnetically separated using an AutoMACSpro (Miltenyi Biotec).
Fluorescent-labelled monoclonal antibodies specific for CD4 (GK1.5) bound to APC-Cy7, CD8 (53-6.7) bound to FITC, CD3 (500A2) bound to AmCyan, CD44 (IM7) bound to Alexa Fluor 700, and CD11 b (M1/70), CD11c (N418) and Ly6G (RB6-8C5) bound to Pacific Blue were used to stain magnetically sorted cells. Analysis was performed using FACSFortessa (BD Bioscience) and FlowJo software (TreeStar). Single cells were gated on forward and side scatter, and dead cells excluded using propidium iodide. CD11 b^− CD11c^− Ly6G^− CD3^+ CD8^+ cells were gated as the target population for analysis of IGRP tetramer-positive T cells.

[3] = tested on: JAK/STAT signalling (p-STAT1); experiment: IFNγ-mediated STAT1 phosphorylation in peripheral blood stimulated ex vivo after oral dosing (Western blot); design: species or system NOD mice; conditions: 80 mg/kg daily oral gavage from 2 to 4 weeks of age; blood taken 2 h after last dose, 100 U/mL IFNγ ex vivo; p=0.01
Protocol: (A) NOD mice received 80 mg/kg ruxolitinib (n=5) or vehicle (n=5) daily by oral gavage from 2 to 4 weeks of age. Two hours after last dose of ruxolitinib or vehicle, peripheral blood was stimulated with 100 U/mL IFNγ ex vivo and analysed by Western blot for IFNγ-mediated phosphorylation of STAT1 and housekeeping protein β-actin. The intensity of p-STAT1 as a ratio of β-actin in arbitrary units (mean±SEM) was used to measure p-STAT1. p=0.01 using two-tailed unpaired t test.
The JAK1/JAK2 inhibitor ruxolitinib was purchased from Chemietek (USA). […] Mice receiving JAK inhibitor were treated with 80 mg/kg ruxolitinib daily by oral gavage from 2 to 4 weeks of age. Control mice received the same volume of vehicle by oral gavage.
Peripheral whole blood was stimulated with 100 U/mL IFN-γ (Biolegend) for 30 min at 37° C. […] Samples were further treated with radioimmunoprecipitation assay buffer (R0278, Sigma), sample buffer (10% SDS, 30% glycerol, 0.02% bromophenol blue in 250 mM Tris-HCl, pH 6.8) and β-mercaptoethanol. Near-infrared fluorescent western blotting was performed using anti-p-STAT1 antibody (BD Biosciences), normalized to β-actin (Santa Cruz Biotechnology) and scanned on an Odyssey CLx imager.
At 4 weeks of age, two hours after the last oral gavage of 80 mg/kg ruxolitinib or vehicle, peripheral blood and islets were harvested from NOD mice.

[4] = target: JAK2 (Homo sapiens, UniProt O60674); conditions: cited from earlier work
Sequence of JAK2 (O60674 whole entry, species assumed): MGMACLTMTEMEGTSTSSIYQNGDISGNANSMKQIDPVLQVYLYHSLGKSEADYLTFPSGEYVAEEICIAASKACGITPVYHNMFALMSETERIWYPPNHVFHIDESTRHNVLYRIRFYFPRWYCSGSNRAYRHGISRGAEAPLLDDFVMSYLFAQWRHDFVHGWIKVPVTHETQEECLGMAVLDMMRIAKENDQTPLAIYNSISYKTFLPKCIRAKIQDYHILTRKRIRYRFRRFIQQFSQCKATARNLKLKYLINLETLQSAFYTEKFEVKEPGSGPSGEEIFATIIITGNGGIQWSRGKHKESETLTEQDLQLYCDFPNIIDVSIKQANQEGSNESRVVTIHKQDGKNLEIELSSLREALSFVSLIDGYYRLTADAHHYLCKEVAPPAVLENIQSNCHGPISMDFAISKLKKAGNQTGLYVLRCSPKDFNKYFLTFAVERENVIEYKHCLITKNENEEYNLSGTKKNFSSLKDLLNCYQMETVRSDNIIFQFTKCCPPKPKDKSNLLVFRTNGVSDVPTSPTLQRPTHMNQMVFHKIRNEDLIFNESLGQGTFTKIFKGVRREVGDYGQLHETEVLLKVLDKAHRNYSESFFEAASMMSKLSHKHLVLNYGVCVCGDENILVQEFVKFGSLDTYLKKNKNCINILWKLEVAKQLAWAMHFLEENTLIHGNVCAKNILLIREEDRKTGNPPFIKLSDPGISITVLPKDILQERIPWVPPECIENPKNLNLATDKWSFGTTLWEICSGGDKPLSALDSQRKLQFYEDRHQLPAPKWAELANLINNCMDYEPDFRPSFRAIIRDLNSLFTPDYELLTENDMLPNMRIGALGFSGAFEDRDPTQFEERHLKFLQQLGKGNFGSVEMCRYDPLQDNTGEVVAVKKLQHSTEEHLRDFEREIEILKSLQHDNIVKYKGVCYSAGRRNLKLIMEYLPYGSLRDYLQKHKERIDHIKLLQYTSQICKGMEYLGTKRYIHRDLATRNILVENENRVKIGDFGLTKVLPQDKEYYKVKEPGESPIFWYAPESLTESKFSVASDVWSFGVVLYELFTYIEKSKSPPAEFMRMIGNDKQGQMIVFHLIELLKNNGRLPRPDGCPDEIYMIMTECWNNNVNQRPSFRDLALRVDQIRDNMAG

[5] = tested on: other JAK-family kinases; conditions: cited from earlier work

CC(C)(C)c1nc2c3cc[nH]c(=O)c3c3cc(F)ccc3c2[nH]1 [JAK inhibitor]
protection from diabetes at 30 weeks of age (210 days) [1]: significantly protected from diabetes | IGRP specific memory T cells 2 weeks after cessation of treatment ([2]; NOD mice without antigen expression (NOD-JAKi)): returned | IGRP specific memory T cells in PLO and in islets immediately after 2 weeks of treatment ([2]; TII mice expressing IGRP from 10 weeks, 10 mg/kg for 2 weeks, TII-Veh vs TII-JAKi): decrease | IGRP specific memory T cell numbers after cessation of treatment ([2]; TII mice with antigen expression (TII-JAKi), islets at 6 weeks p=0.02, PLO p=0.054): remained low

N#CC[C@H](C1CCCC1)n1cc(-c2ncnc3[nH]ccc23)cn1 [ruxolitinib]
reduction of STAT1 phosphorylation compared to vehicle-treated NOD mice [3]: greater than 50%

C[C@H](Nc1cc(-c2cnn(C)c2)cc(Nc2cnccn2)n1)c1ccc(F)cc1 [NS018]
IC50 [4]: < 1 nM | selectivity for JAK2 over other JAK-family kinases [5]: 30-50 fold
